Here are results for 1 molecule from patent publication US4649911A, “Small particle aerosol generator for treatment of respiratory disease including the lungs” (Baylor College of Medicine, priority 1986, dated 1987).

For this series the following is noted: human, in vivo.

SMILES strings stand for the structures.

Method: The following hematologic studies were performed at admission and at discharge from the hospital: hematocrit, red cell count, white cell count, differential white cell count, hemoglobin concentration and reticulocyte count. Biochemical tests as follows were performed on admission, at discharge, and one month later: indirect bilirubin, direct bilirubin, total bilirubin, blood urea nitrogen, creatinine, glucose, calcium, phosphorus, albumin, total protein, alkaline phcsphatase, serum aspartate transminase (ASP), and serum alanine transaminase (ALT), lactic dehydrogenase (LDH), creatine phosphokinase (CPK), uric acid, and aldolase.
Clinical chemical tests were performed on 14 treated and 17 control patients at admission; at discharge there were 13 treated and 15 controls, and at one month there were 11 and 17 sets of tests performed.

Consider `NC(=O)c1ncn([C@@H]2O[C@H](CO)[C@@H](O)[C@H]2O)n1` [ribavirin], for which the absolute lymphocyte count result is on record as “more than doubled”.
